From patent US20210283163A1, “COMPOSITIONS AND METHODS FOR THE TREATMENT OF ACUTE AND CHRONIC PRURITIS” (Duke University, priority 2018, published 2021)

System: human DRG neurons
Assay: Whole-cell patch clamp, inward currents in human DRG neurons
Format: cell-based
Conditions: A967079 10 μM
Experimental: Non-diseased human DRGs were obtained from donors through National Disease Research Interchange (NDRI) with permission of exemption from the Duke University Institutional Review Board (IRB). Postmortem L3-L5 DRGs were dissected from 4 donors and delivered in ice cold culture medium to the laboratory at Duke University within 24-72 hr of the donor's death. Upon the delivery, DRGs were rapidly dissected from nerve roots and minced in a calcium-free HBSS (GIBCO). Human DRG cultures were prepared as previously reported (Chang et al., Neurosci. Bull. 2018, 34, 4-12; Han et al., Neuron 2016, 92, 1279-1293). DRGs were digested at 37° C. in a humidified CO2 incubator for 120 min with collagenase Type II (Worthington, 290 units/mg, 12 mg/mL final concentration) and dispase II (Roche, 1 unit/mg, 20 mg/mL) in PBS with 10 mM HEPES, pH adjusted to 7.4 with NaOH. DRGs were mechanically dissociated using fire-polished pipettes, filtered through a 100 μm nylon mesh and centrifuged (500 g for 5 min). The pellet was resuspended, plated on 0.5 mg/mL poly-D-lysine-coated glass coverslips, and grown in Neurobasal medium supplemented with 10% FBS, 2% B-27 supplement, and 1% penicillin/streptomycin. Whole-cell patch-clamp recordings in small (<[…]) human DRG neurons were conducted at room temperature using patch pipettes with resistances of 3-4 MΩ.
Whole-Cell Patch Clamp Recordings in HEK293 Cells, CHO Cells, and DRG Neurons. Whole-cell patch clamp recordings were performed at room temperature using an Axopatch-200B amplifier (Axon Instruments) with a Digidata 1440B (Axon Instruments). In this study, we only examined small-diameter mouse DRG neurons (<25 μM) and small-diameter human DRG neurons (<55 μM). The patch pipettes were pulled from borosilicate capillaries (World Precision Instruments) using a P-97 Flaming/Brown micropipette puller (Sutter Instrument). Pipette resistance was 4-6 MΩ for whole-cell and outside-out recording. […]

CCC(=N\O)/C(C)=C/c1ccc(F)cc1 [A967079, (1E,3E)-1-(4-Fluorophenyl)-2-methyl-1-pentene-3-one oxime]
block of miRNA-evoked inward currents in human DRG neurons: blocked
